Test results taken from US20050154046A1, “Methods of treating an inflammatory-related disease” (priority 2004, published 2005).

Tests used:
[1] = test system: mouse vaginal epithelium; experiment: Mitotic index in estrogen-stimulated vaginal epithelium of female mice; type: in vivo, Kunming mice; conditions: 200.0 mg/kg orally once a day, 3 days; percent of mitotic cells
Excerpt: Materials: Meisoindigo was synthesized, purified and its structure characterized by Natrogen Therapeutics, Inc. The purity of the compound was 98.5% as described in the Examples above. A suspension of Meisoindigo was freshly prepared in 0.5% sodium methylcellulose and given orally for the animal tests described below. Other chemicals used in the following experiments were purchased from Sigma.
Pathogen-free female Kunming mice at 12 weeks of age with body weights from 22 to 25 grams were housed 5 per cage, and given, ad libitum, fresh tap water and commercial rodent pellets. Animal rooms were controlled at 24±2° C. with a relative humidity of 60±5% and a 12 hour light/dark cycle (07:00-19:00 hr).
Anti-mitotic Effects of Meisoindigo on Mouse Vaginal Epithelium: Sixty Kunming female mice were randomly divided into 5 groups, 20 in one control group, and 10 in 4 drug-tested groups. All mice were given estrogen at a dose of 0.2 mg/animal for 3 days to allow vaginal epithelial cells to develop under the stimulation of estrogen hormone. Meisoindigo was freshly prepared as a suspension in 0.5% of sodium methylcellulose. The drug was given orally at doses of 50, 100, and 200 mg/kg, respectively, once a day for 3 days. Methotrexate (MTX) was used as a positive control at a dose of 1 mg/kg, i.p. once a day for the same period of time. […] The mitotic index (percent of mitotic cells) was calculated.

[2] = test system: IL-10; experiment: IL-10 secretion (ELISA) in THP-1 cells; type: cell-based, human
Description: Viability of cells was examined under microscope after trypan blue staining.
Viability of cells was examined by trypan blue exception assay.

[3] = test system: cdk4/6; experiment: Cyclin dependent kinase activity in THP-1 cells (immunoprecipitation, histone H1 phosphorylation); type: cell-based, human; conditions: 31.25 and 62.5 nM, 24 h
Description: 2) Effects of Meisoindigo and/or NATURA on activity of cyclin dependent kinases (CDK) in THP-1 cells (99): THP-1 cells grown exponentially were exposed to […] of Meisoindigo or NATURA for 24 hr, respectively.
The cells were harvested, washed, and total proteins extracted as described previously (100). One hundred μg of the proteins were immuno-precipitated using antibodies against either cdk2, cdk4/6 or cyclin D1 overnight at 4° C. in the presence of a cocktail of protease inhibitors. The immuno-precipitates were washed 4 times with protein extraction buffer and once with kinase assay buffer, and reacted with […] histone H1 in the presence of [γ-^32P]-ATP (10 μCi/10 μM). The phosphorylated histone H1 (represent cdk activity) was measured by scintillation counting or by SDS-polyacrylaimde gel electrophoresis (101, 102).

[4] = test system: chronic myeloid leukemia (CML); conditions: cited from earlier work

CN1C(=O)/C(=C2/C(=O)Nc3ccccc32)c2ccccc21 [Meisoindigo]
Mitotic Index (X ± SD) [1]: 16.06±2.66 | increase in the IL-10 secretion ([2]; 0.0625 μM, THP-1 cells): Approximately 60% | increase of IL-10 secretion at maximal stimulation ([2]; 62.5 nM, LPS-treated THP-1 cells, 24 h): approximately 2 fold | effect on IL-10 production ([2]; 31.25 and 62.5 nM, 24 h): promoted production | IL-10 (Stimulation), Percentage of Maximal Response Without Cytotoxicity ([2]; LPS-stimulated THP-1 cells, LPS alone −18.27): 201.97 ± 11.2% | elevation of LPS-suppressed IL-10 ([2]; similar concentrations (as low as 31.25 nM), FIG. 6A): ~2 fold | inhibition of cyclin dependent kinase 4 and 6 activity [3]: failed to inhibit | side effects reported ([4]; 150 mg per day, China): very minor side effects | total dosage needed to achieve the maximal remission of CML [4]: 8696 mg
